# From patent US11999716B2, “WDR5 inhibitors and modulators” (priority 2018, dated 2024)
# Test system: MV4:11 human cancer cell lines
# Experiment: Cellular viability / anti-proliferative activity, CellTiter-Glo, 5 day protocol
# Format: cell-based
# Conditions: Homo sapiens, MV4-11, 120 h, MV4:11 cells; 5 day incubation; CellTiter-Glo; mean of minimum two replicates; read-out: GI50 on cellular proliferation of MV4:11 human cancer cell lines
# Method in brief: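 Cells seeded at 200 per well (7200 cells/mL) with compound in 2-fold serial dilutions from 30 μM top (22 points), 0.3% DMSO final. Viability read by CellTiter-Glo luminescence after 5 days; GI50 from sigmoidal dose-response fit, mean of at least two replicates.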
row,GI50 [nM],SMILES
1,< 50,"Cc1cnc(Cl)c(CN2CCc3c(cc(Cn4ccnc4C)cc3-c3cn(C)nc3C(F)(F)F)C2=O)c1 [Example 223, 2-((2-Chloro-5-methylpyridin-3-yl)methyl)-7-((2-methyl-1H-imidazol-1-yl)methyl)-5-(1-methyl-3-(trifluoromethyl)-1H-pyrazol-4-yl)-3,4-dihydroisoquinolin-1(2H)-one]"
2,72,"COc1ccnc([C@H](C)N2CCc3c(cc(Cn4ccnc4C)cc3-c3ccncc3C)C2=O)c1 [Example 224, (S)-2-(1-(4-Methoxypyridin-2-yl)ethyl)-7-((2-methyl-1H-imidazol-1-yl)methyl)-5-(3-methylpyridin-4-yl)-3,4-dihydroisoquinolin-1(2H)-one]"
3,195,"Cc1nccn1Cc1cc2c(c(-c3cn(C)nc3C(F)(F)F)c1)CCN(Cc1cc(Cl)cc3ccccc13)C2=O [Example 225, 2-((3-Chloronaphthalen-1-yl)methyl)-7-((2-methyl-1H-imidazol-1-yl)methyl)-5-(1-methyl-3-(trifluoromethyl)-1H-pyrazol-4-yl)-3,4-dihydroisoquinolin-1(2H)-one]"
4,950,"Cc1nccn1Cc1cc2c(c(-c3cn(C)nc3C(F)(F)F)c1)CCN(Cc1cccc(Cl)c1)C2=O [Example 226, 2-(3-Chlorobenzyl)-7-((2-methyl-1H-imidazol-1-yl)methyl)-5-(1-methyl-3-(trifluoromethyl)-1H-pyrazol-4-yl)-3,4-dihydroisoquinolin-1(2H)-one]"
5,7450,COc1cc(CN2CCc3c(cc(Cn4cnc5ccccc54)cc3-c3ccc(F)cc3C)C2=O)cc(OC)c1 [Example 227]
6,< 50,"COc1cncc(CN2CCc3c(cc(Cn4ccnc4C)cc3-c3cn(C)nc3C(F)(F)F)C2=O)c1 [Example 228, 2-((5-Methoxypyridin-3-yl)methyl)-7-((2-methyl-1H-imidazol-1-yl)methyl)-5-(1-methyl-3-(trifluoromethyl)-1H-pyrazol-4-yl)-3,4-dihydroisoquinolin-1(2H)-one]"
7,1050,"COc1ccnc(CN2CCc3c(cc(Cn4ccnc4C)cc3-c3cc(F)cnc3C)C2=O)c1 [Example 229, 5-(5-Fluoro-2-methylpyridin-3-yl)-2-((4-methoxypyridin-2-yl)methyl)-7-((2-methyl-1H-imidazol-1-yl)methyl)-3,4-dihydroisoquinolin-1(2H)-one]"
8,< 50,"CCn1cc(-c2cc(Cc3ncc[nH]3)cc3c2CCN([C@@H](C)c2cc(OC)ccn2)C3=O)c(C(F)(F)F)n1 [Example 230, (S)-7-((1H-Imidazol-2-yl)methyl)-5-(1-ethyl-3-(trifluoromethyl)-1H-pyrazol-4-yl)-2-(1-(4-methoxypyridin-2-yl)ethyl)-3,4-dihydroisoquinolin-1(2H)-one]"
9,550,"Cc1nccn1Cc1cc2c(c(-c3cn(C)nc3C(F)(F)F)c1)CCN(Cc1cccc(-c3ccsc3)c1)C2=O [Example 231, 7-((2-Methyl-1H-imidazol-1-yl)methyl)-5-(1-methyl-3-(trifluoromethyl)-1H-pyrazol-4-yl)-2-(3-(thiophen-3-yl)benzyl)-3,4-dihydroisoquinolin-1(2H)-one]"
10,199,"Cc1cnnc(CN2CCc3c(cc(Cn4ccnc4C)cc3-c3cn(C)nc3C(F)(F)F)C2=O)c1 [Example 232, 7-((2-Methyl-1H-imidazol-1-yl)methyl)-5-(1-methyl-3-(trifluoromethyl)-1H-pyrazol-4-yl)-2-((5-methylpyridazin-3-yl)methyl)-3,4-dihydroisoquinolin-1(2H)-one]"
11,748,"Cc1nccn1Cc1cc2c(c(-c3cn(C)nc3C(F)(F)F)c1)CCN(Cc1ccccc1)C2=O [Example 233, 2-Benzyl-7-((2-methyl-1H-imidazol-1-yl)methyl)-5-(1-methyl-3-(trifluoromethyl)-1H-pyrazol-4-yl)-3,4-dihydroisoquinolin-1(2H)-one]"
12,283,"Cc1nccn1Cc1cc2c(c(-c3cn(C)nc3C(F)(F)F)c1)CCN(Cc1cccc(C3CC3)c1)C2=O [Example 234, 2-(3-Cyclopropylbenzyl)-7-((2-methyl-1H-imidazol-1-yl)methyl)-5-(1-methyl-3-(trifluoromethyl)-1H-pyrazol-4-yl)-3,4-dihydroisoquinolin-1(2H)-one]"
13,199,"C=Cc1cccc(CN2CCc3c(cc(Cn4ccnc4C)cc3-c3cn(C)nc3C(F)(F)F)C2=O)c1 [Example 235, 7-((2-Methyl-1H-imidazol-1-yl)methyl)-5-(1-methyl-3-(trifluoromethyl)-1H-pyrazol-4-yl)-2-(3-vinylbenzyl)-3,4-dihydroisoquinolin-1(2H)-one]"
14,121,"Cc1nccn1Cc1cc2c(c(-c3cn(C)nc3C(F)(F)F)c1)CCN(Cc1cc(Br)cc3[nH]ccc13)C2=O [Example 236, 2-((6-Bromo-1H-indol-4-yl)methyl)-7-((2-methyl-1H-imidazol-1-yl)methyl)-5-(1-methyl-3-(trifluoromethyl)-1H-pyrazol-4-yl)-3,4-dihydroisoquinolin-1(2H)-one]"
15,< 50,"COc1ccnc([C@H](C)N2CCc3c(cc(Cn4ccnc4C)cc3-c3c[nH]nc3C(F)(F)F)C2=O)c1 [Example 237, (S)-2-(1-(4-methoxypyridin-2-yl)ethyl)-7-((2-methyl-1H-imidazol-1-yl)methyl)-5-(3-(trifluoromethyl)-1H-pyrazol-4-yl)-3,4-dihydroisoquinolin-1(2H)-one]"
16,227,"COc1ccnc([C@H](C)N2CCc3c(cc(Cn4ccnc4C)cc3-c3c[nH]nc3C)C2=O)c1 [Example 238, (S)-2-(1-(4-methoxypyridin-2-yl)ethyl)-7-((2-methyl-1H-imidazol-1-yl)methyl)-5-(3-methyl-1H-pyrazol-4-yl)-3,4-dihydroisoquinolin-1(2H)-one]"
17,573,"Cc1nccn1Cc1cc2c(c(-c3cn(C)nc3C(F)(F)F)c1)CCN([C@@H](C)c1cc(C3CC3)nn1C)C2=O [Example 239, (S)-2-(1-(3-Cyclopropyl-1-methyl-1H-pyrazol-5-yl)ethyl)-7-((2-methyl-1H-imidazol-1-yl)methyl)-5-(1-methyl-3-(trifluoromethyl)-1H-pyrazol-4-yl)-3,4-dihydroisoquinolin-1(2H)-one]"
18,< 50,"Cc1cc(CN2CCc3c(cc(Cn4ccnc4C)cc3-c3cn(C)nc3C(F)(F)F)C2=O)cnc1C [Example 241, 2-((5,6-Dimethylpyridin-3-yl)methyl)-7-((2-methyl-1H-imidazol-1-yl)methyl)-5-(1-methyl-3-(trifluoromethyl)-1H-pyrazol-4-yl)-3,4-dihydroisoquinolin-1(2H)-one]"
19,< 50,"CCn1cc(-c2cc(Cn3ccnc3C)cc3c2CCN([C@@H](C)c2cncc(OC)c2)C3=O)c(C(F)(F)F)n1 [Example 243, (S)-5-(1-Ethyl-3-(trifluoromethyl)-1H-pyrazol-4-yl)-2-(1-(5-methoxypyridin-3-yl)ethyl)-7-((2-methyl-1H-imidazol-1-yl)methyl)-3,4-dihydroisoquinolin-1(2H)-one]"
20,119,"CCn1cc(-c2cc(Cn3cnc(C)c3)cc3c2CCN([C@H](c2cc(OC)ccn2)C2CC2)C3=O)c(C(F)(F)F)n1 [Example 244, (S)-2-(cyclopropyl(4-methoxypyridin-2-yl)methyl)-5-(1-ethyl-3-(trifluoromethyl)-1H-pyrazol-4-yl)-7-((4-methyl-1H-imidazol-1-yl)methyl)-3,4-dihydroisoquinolin-1(2H)-one]"
21,< 50,"CCn1cc(-c2cc(Cn3ccnc3)cc3c2CCN([C@H](c2cc(C)ccn2)C2CC2)C3=O)c(C(F)(F)F)n1 [Example 245, (S)-7-((1H-imidazol-1-yl)methyl)-2-(cyclopropyl(4-methylpyridin-2-yl)methyl)-5-(1-ethyl-3-(trifluoromethyl)-1H-pyrazol-4-yl)-3,4-dihydroisoquinolin-1(2H)-one]"
22,1870,"Cc1nccn1Cc1cc2c(c(-c3cn(C)nc3C(F)(F)F)c1)CCN(c1cnccc1-c1ccccc1)C2=O [Example 246, 7-((2-Methyl-1H-imidazol-1-yl)methyl)-5-(1-methyl-3-(trifluoromethyl)-1H-pyrazol-4-yl)-2-(4-phenylpyridin-3-yl)-3,4-dihydroisoquinolin-1(2H)-one]"
23,55,"COc1ccnc([C@H](C)N2CCc3c(cc(Cn4ccnc4C)cc3-c3ccncc3C(F)(F)F)C2=O)c1 [Example 248, (S)-2-(1-(4-Methoxypyridin-2-yl)ethyl)-7-((2-methyl-1H-imidazol-1-yl)methyl)-5-(3-(trifluoromethyl)pyridin-4-yl)-3,4-dihydroisoquinolin-1(2H)-one]"
24,1970,"COc1ccnc([C@H](C)N2CCc3c(cc(Cn4ccnc4C)cc3-c3cncnc3C(F)(F)F)C2=O)c1 [Example 249, (S)-2-(1-(4-Methoxypyridin-2-yl)ethyl)-7-((2-methyl-1H-imidazol-1-yl)methyl)-5-(4-(trifluoromethyl)pyrimidin-5-yl)-3,4-dihydroisoquinolin-1(2H)-one]"

# Same assay, conditions: Homo sapiens, MV4-11, 120 h, read-out: GI50 on cellular proliferation of MV4:11 human cancer cell lines
row,SMILES,GI50 [nM]
1,"CCn1cc(-c2cc(Cc3cnc[nH]3)cc3c2CCN([C@@H](C)c2cc(OC)ccn2)C3=O)c(C(F)(F)F)n1 [Example 250, (S)-7-((1H-Imidazol-5-yl)methyl)-5-(1-ethyl-3-(trifluoromethyl)-1H-pyrazol-4-yl)-2-(1-(4-methoxypyridin-2-yl)ethyl)-3,4-dihydroisoquinolin-1(2H)-one]",< 50

# Same assay, conditions: MV4:11 cells; 5 day incubation; CellTiter-Glo; mean of minimum two replicates; read-out: GI50 on cellular proliferation of MV4:11 human cancer cell lines
row,GI50 [nM],SMILES
1,50,"Cc1cc(CN2CCc3c(cc(Cn4ccnc4C)cc3-c3cn(C)nc3C(F)(F)F)C2=O)cnc1Cl [Example 242, 2-((6-Chloro-5-methylpyridin-3-yl)methyl)-7-((2-methyl-1H-imidazol-1-yl)methyl)-5-(1-methyl-3-(trifluoromethyl)-1H-pyrazol-4-yl)-3,4-dihydroisoquinolin-1(2H)-one]"
